Entries after “also recorded” stand apart in the source; their conditions may differ.
Key:
[1] = tested on: CDKN2B-deficient SMCs; test: Phagocytosis of CDKN2B-deficient SMCs by macrophages with anti-CD47 Ab; type: cell-based; settings: FIG. 12
Text: Implicating Cdkn2b in “efferocytosis”— the phagocytic clearance of apoptotic debris: an increase in the rate at which apoptotic debris was produced in this chronic disease model could not be observed (P=NS for TUNEL and Caspase assays at both Week 4 and Week 12). It was reasoned that loss of Cdkn2b might regulate the rate at which apoptotic debris is cleared in the developing atherosclerotic plaque. This process, known as “efferocytosis” (from the Greek meaning to carry the dead to the grave), was assessed with established in vitro flow cytometry-based co-culture phagocytosis assays.

[2] = tested on: CALR promoter; test: CALR luciferase promoter reporter assay with TGF-β; type: cell-based, human; settings: control-transfected HEK cells, TGFβ-1 0.5-10 ng/mL, 16 hours
Method: Calreticulin LightSwitch Promoter Reporter GoClones (RenSP, S721464), Empty vectors (S790005) and Cypridina TK Control constructs (pTK-Cluc, SN0322S) were obtained from SwitchGear Genomics (Menlo Park, Calif.) and transfected into HEK cells using Lipofectamine 2000 (Invitrogen). For knockdown assays, 5 pmol of anti-CDKN2B or control siRNA were co-transfected. For overexpression, CDKN2B (sc319536) and Rb expression plasmid (sc119971) and empty vector (pCMV6) were obtained from Origene and 100 ng of plasmid were co-transfected. Dual luciferase activity was measured with the LightSwitch Dual Assay System after 48 hours using a SpectraMax L luminometer (Molecular Devices), according to the manufacturer's instructions. In some experiments, media was changed to serum-free media after 24 hours of transfection. Studies were performed at baseline, and after the cells had been exposed to escalating doses of recombinant human TGFβ-1 (from Sigma, 0.5-10 ng/mL) for the final 16 hours prior to analysis. Relative luciferase activity (Renilla/Cypridina luciferase ratio) is expressed as the percentage change relative to the basal values obtained from control-transfected cells not exposed to TGF-β treatment.

[3] = tested on: CDKN2B; test: CDKN2B expression in untransfected HCASMC after exogenous TGF-β; type: cell-based, human; settings: FIG. 9B
Method: Human coronary artery SMC (HCASMC, Lonza, Walkersville, Md., passage #3-6) were propagated in SmGM-2 growth media (Lonza) containing 5% FBS. Human THP-1 monocytic cells, human embryonic kidney (HEK-293) and RAW 264.7 macrophages (ATCC) were grown in DMEM-growth media containing 10% FBS. Primary vascular smooth muscle cells were harvested from the aortas of Cdkn2b^+/+ and Cdkn2b^−/− mice, as previously described. Primary activated macrophages were harvested from mice 72 hrs after intraperitoneal injection of 2 ml of 4% thioglycollate, as previously described. To induce growth arrest and the expression of differentiation genes, SMC were serum starved in basal media (SmBM) for 72 hours, according to conventional protocols.
PCR RNA was isolated from cell lysates using the miRNeasy Mini Kit (Qiagen, Valencia, Calif.) according to the manufacturer's protocol. RNA was isolated from the murine organ samples using the Trizol method (Invitrogen). RNA was quantified with the Nanodrop machine ([…], Santa Clara, Calif.) For quantitation of gene transcription, cDNA was generated with M-MuLV reverse transcriptase, and then amplified on the ABI PRISM 7900HT with commercially available TaqMan primers (Applied Biosystems, Foster City, Calif.) and normalized to 18S internal controls, as previously described. A list of the primers and probes used in these studies is provided in below.

Substance	increase in phagocytosis of SMCs by Mϕ's ([1]; CDKN2B-deficient SMCs) [%]	phagocytosis of CDKN2B-deficient SMCs by macrophages [1]	CALR expression (promoter reporter activity) [2]	CDKN2B expression [3]
Hu5F9-G4: humanized anti-CD47 mAb engineered by CDR grafting of mouse sequences into a human IgG4 framework	~72	enables macrophages to phagocytose		
TGF-β: recombinant human TGFβ-1 (from Sigma)			increased in response to TGF-β treatment in a dose-dependent manner; also recorded: increased by TGF-β in a dose-dependent manner	increased their expression of CDKN2B
